Data reported in paper PMC12366332 (Applied and Environmental Microbiology, 2025).
Like-named read-outs stand apart in the source and are kept apart here. Square brackets hold non-standard residues; d marks the D form. Peptide text beside a SMILES is read from it. * marks the point of attachment. Butyryl = CCCC(=O)*

What was measured:
[1] = test system: horse erythrocytes; conditions: red cells of horse, 50 µM
[2] = test system: tobacco leaves; conditions: 150 µM; after 48 h
[3] = test system: X. fastidiosa subsp. fastidiosa IVIA 5387.2
[4] = test system: E. coli 0111:B4 LPS; format: biochemical, Escherichia coli

Structure (SMILES)	Hemolytic activity (%) [1] [%]	Phytotoxicity: diameter of the lesion [2] [mm]	Bactericidal activity Reduction in viability (Log N0/N) ([3]; 12.5 µM)	Bactericidal activity Level ([3]; 50 µM)	Bactericidal activity Reduction in viability (Log N0/N) ([3]; 50 µM)	Bactericidal activity Reduction in viability (Log N0/N) ([3]; 3.1 µM)	LPS neutralization Ratio (treatment/NTC) [4]
CCCC(=O)N[C@@H](CCCCN)C(=O)N[C@@H](CCCCN)C(=O)N[C@@H](CC(C)C)C(=O)N[C@H](Cc1ccccc1)C(=O)N[C@@H](CCCCN)C(=O)N[C@@H](CCCCN)C(=O)N[C@H](C(=O)N[C@@H](CC(C)C)C(=O)N[C@@H](CCCCN)C(=O)N[C@@H](Cc1ccc(O)cc1)C(=O)N[C@@H](CC(C)C)C(N)=O)[C@@H](C)CC [BP485, C3H7CO-KKLfKKILKYL-NH2]	3	3	0,49 Log N0/N	Moderate (key: Very High: very high bactericidal activity (>2.5 log); High: high bactericidal activity (between 2.0 and 2.5 log); Moderate: a moderate activity (between 1.5 and 2.0 log); Low: low active (<1.5 log))	1,92 Log N0/N		
CCCCCCCCCCCC(=O)NCCCC[C@H](NC(=O)[C@@H](NC(=O)[C@H](CCCCN)NC(=O)[C@H](CCCCN)NC(=O)[C@@H](Cc1ccccc1)NC(=O)[C@H](CC(C)C)NC(=O)[C@H](CCCCN)NC(=O)[C@H](CCCCN)NC(C)=O)[C@@H](C)CC)C(=O)N[C@@H](CCCCN)C(=O)N[C@@H](Cc1ccc(O)cc1)C(=O)N[C@@H](CC(C)C)C(N)=O [BP490, Ac-KKLfKKIK(COC11H23)KYL-NH2]	100	6		High (key: Very High: very high bactericidal activity (>2.5 log); High: high bactericidal activity (between 2.0 and 2.5 log); Moderate: a moderate activity (between 1.5 and 2.0 log); Low: low active (<1.5 log))		1,28 Log N0/N	
CCCCCC(=O)NCCCC[C@H](NC(=O)[C@H](CCCCN)NC(=O)[C@H](CCCCN)NC(=O)[C@@H](Cc1ccccc1)NC(=O)[C@H](CC(C)C)NC(=O)[C@H](CCCCN)NC(=O)[C@H](CCCCN)NC(C)=O)C(=O)N[C@@H](CC(C)C)C(=O)N[C@@H](CCCCN)C(=O)N[C@@H](Cc1ccc(O)cc1)C(=O)N[C@@H](CC(C)C)C(N)=O [BP494, Ac-KKLfKKK(COC5H11)LKYL-NH2]	0	6		Low (key: Very High: very high bactericidal activity (>2.5 log); High: high bactericidal activity (between 2.0 and 2.5 log); Moderate: a moderate activity (between 1.5 and 2.0 log); Low: low active (<1.5 log))	1,21 Log N0/N		0,51
CCCCCC(=O)NCCCC[C@H](NC(=O)[C@H](Cc1ccc(O)cc1)NC(=O)[C@H](CCCCN)NC(=O)[C@H](CC(C)C)NC(=O)[C@@H](NC(=O)[C@H](CCCCN)NC(=O)[C@H](CCCCN)NC(=O)[C@@H](Cc1ccccc1)NC(=O)[C@H](CC(C)C)NC(=O)[C@H](CCCCN)NC(=O)[C@H](CCCCN)NC(C)=O)[C@@H](C)CC)C(N)=O [BP495, Ac-KKLfKKILKYK(COC5H11)-NH2]	0	6	0,03 Log N0/N	High (key: Very High: very high bactericidal activity (>2.5 log); High: high bactericidal activity (between 2.0 and 2.5 log); Moderate: a moderate activity (between 1.5 and 2.0 log); Low: low active (<1.5 log))			0,55
CCCC(=O)NCCCC[C@H](NC(=O)[C@H](Cc1ccc(O)cc1)NC(=O)[C@H](CCCCN)NC(=O)[C@H](CC(C)C)NC(=O)[C@@H](NC(=O)[C@H](CCCCN)NC(=O)[C@H](CCCCN)NC(=O)[C@@H](Cc1ccccc1)NC(=O)[C@H](CC(C)C)NC(=O)[C@H](CCCCN)NC(=O)[C@H](CCCCN)NC(C)=O)[C@@H](C)CC)C(N)=O [BP496, Ac-KKLfKKILKYK(COC3H7)-NH2] (Ac-KKL[dF]KKILKYK(Butyryl)-NH2)	0	4		Low (key: Very High: very high bactericidal activity (>2.5 log); High: high bactericidal activity (between 2.0 and 2.5 log); Moderate: a moderate activity (between 1.5 and 2.0 log); Low: low active (<1.5 log))	0,69 Log N0/N		0,92
CCCC(=O)NCCCC[C@H](NC(=O)[C@@H](Cc1ccccc1)NC(=O)[C@H](CC(C)C)NC(=O)[C@H](CCCCN)NC(=O)[C@H](CCCCN)NC(C)=O)C(=O)N[C@@H](CCCCN)C(=O)N[C@H](C(=O)N[C@@H](CC(C)C)C(=O)N[C@@H](CCCCN)C(=O)N[C@@H](Cc1ccc(O)cc1)C(=O)N[C@@H](CC(C)C)C(N)=O)[C@@H](C)CC [BP498, Ac-KKLfK(COC3H7)KILKYL-NH2]	9	7		Moderate (key: Very High: very high bactericidal activity (>2.5 log); High: high bactericidal activity (between 2.0 and 2.5 log); Moderate: a moderate activity (between 1.5 and 2.0 log); Low: low active (<1.5 log))	1,58 Log N0/N		0,40
CCCC(=O)NCCCC[C@H](NC(=O)[C@H](CC(C)C)NC(=O)[C@@H](NC(=O)[C@H](CCCCN)NC(=O)[C@H](CCCCN)NC(=O)[C@@H](Cc1ccccc1)NC(=O)[C@H](CC(C)C)NC(=O)[C@H](CCCCN)NC(=O)[C@H](CCCCN)NC(C)=O)[C@@H](C)CC)C(=O)N[C@@H](Cc1ccc(O)cc1)C(=O)N[C@@H](CC(C)C)C(N)=O [BP499, Ac-KKLfKKILK(COC3H7)YL-NH2]	2	7		High (key: Very High: very high bactericidal activity (>2.5 log); High: high bactericidal activity (between 2.0 and 2.5 log); Moderate: a moderate activity (between 1.5 and 2.0 log); Low: low active (<1.5 log))		0,63 Log N0/N	0,34
CCCCCCCCCCCC(=O)NCCCC[C@H](NC(=O)[C@H](CCCCN)NC(=O)[C@H](CCCCN)NC(C)=O)C(=O)N[C@H](Cc1ccccc1)C(=O)N[C@@H](CCCCN)C(=O)N[C@@H](CCCCN)C(=O)N[C@H](C(=O)N[C@@H](CC(C)C)C(=O)N[C@@H](CCCCN)C(=O)N[C@@H](Cc1ccc(O)cc1)C(=O)N[C@@H](CC(C)C)C(N)=O)[C@@H](C)CC [BP500, Ac-KKK(COC11H23)fKKILKYL-NH2]	99	8		Low (key: Very High: very high bactericidal activity (>2.5 log); High: high bactericidal activity (between 2.0 and 2.5 log); Moderate: a moderate activity (between 1.5 and 2.0 log); Low: low active (<1.5 log))	1,37 Log N0/N		
CCCC(=O)NCCCC[C@H](NC(=O)[C@H](CCCCN)NC(=O)[C@H](CC(C)C)NC(=O)[C@@H](NC(=O)[C@H](CCCCN)NC(=O)[C@H](CCCCN)NC(=O)[C@H](Cc1c[nH]cn1)NC(=O)[C@H](CC(C)C)NC(=O)[C@H](CCCCN)NC(=O)[C@H](CCCCN)NC(C)=O)[C@@H](C)CC)C(=O)N[C@@H](CC(C)C)C(N)=O [BP501, Ac-KKLHKKILKK(COC3H7)L-NH2] (Ac-KKLHKKILKK(Butyryl)L-NH2)	2	0		Low (key: Very High: very high bactericidal activity (>2.5 log); High: high bactericidal activity (between 2.0 and 2.5 log); Moderate: a moderate activity (between 1.5 and 2.0 log); Low: low active (<1.5 log))	0,30 Log N0/N		0,71
CCCC(=O)NCCCC[C@H](NC(C)=O)C(=O)N[C@@H](CCCCN)C(=O)N[C@@H](CC(C)C)C(=O)N[C@H](Cc1ccccc1)C(=O)N[C@@H](CCCCN)C(=O)N[C@@H](CCCCN)C(=O)N[C@H](C(=O)N[C@@H](CC(C)C)C(=O)N[C@@H](CCCCN)C(=O)N[C@@H](Cc1ccc(O)cc1)C(=O)N[C@@H](CC(C)C)C(N)=O)[C@@H](C)CC [BP545, Ac-K(COC3H7)KLfKKILKYL-NH2]	5	4	0,54 Log N0/N	High (key: Very High: very high bactericidal activity (>2.5 log); High: high bactericidal activity (between 2.0 and 2.5 log); Moderate: a moderate activity (between 1.5 and 2.0 log); Low: low active (<1.5 log))			0,56
CCCC(=O)NCCCC[C@H](NC(=O)[C@H](CCCCN)NC(=O)[C@H](CCCCN)NC(C)=O)C(=O)N[C@H](Cc1ccccc1)C(=O)N[C@@H](CCCCN)C(=O)N[C@@H](CCCCN)C(=O)N[C@@H](CCCCN)C(=O)N[C@@H](CC(C)C)C(=O)N[C@@H](CCCCN)C(=O)N[C@@H](Cc1ccc(O)cc1)C(=O)N[C@@H](CC(C)C)C(N)=O [BP546, Ac-KKK(COC3H7)fKKKLKYL-NH2] (Ac-KKK(Butyryl)[dF]KKKLKYL-NH2)	0	0		Low (key: Very High: very high bactericidal activity (>2.5 log); High: high bactericidal activity (between 2.0 and 2.5 log); Moderate: a moderate activity (between 1.5 and 2.0 log); Low: low active (<1.5 log))	0,34 Log N0/N		0,73
CCCC(=O)NCCCC[C@@H](NC(=O)[C@H](CC(C)C)NC(=O)[C@H](CCCCN)NC(=O)[C@H](CCCCN)NC(C)=O)C(=O)N[C@@H](CCCCN)C(=O)N[C@@H](CCCCN)C(=O)N[C@H](C(=O)N[C@@H](CC(C)C)C(=O)N[C@H](C(=O)N[C@@H](Cc1ccc(O)cc1)C(=O)N[C@@H](CC(C)C)C(N)=O)[C@@H](C)CC)[C@@H](C)CC [BP547, Ac-KKLk(COC3H7)KKILIYL-NH2]	0	2		Low (key: Very High: very high bactericidal activity (>2.5 log); High: high bactericidal activity (between 2.0 and 2.5 log); Moderate: a moderate activity (between 1.5 and 2.0 log); Low: low active (<1.5 log))	0,05 Log N0/N		0,99
